Results on 2 molecules are retold here after patent US10899741B2, “3,4-bipyridyl pyrazole derivative, and preparation method therefor and medical application thereof” (Jiangsu Hengrui Medicine Co., Ltd., priority 2016, dated 2021).

In one data set the target is recombinant human VEGFR2 (Homo sapiens (Human), UniProt P35968). The experiment in a line: Inhibition of VEGFR2 kinase activity (Z'-LYTE kit). The class given is biochemical. Particulars: ATP 50 μM, 25° C. 2 hours. The method, then: The inhibition effect of VEGFR2 kinase activity in vitro was determined by the following method.
The inhibition effect of the compounds of the present invention on VEGFR2 kinase activity was determined by the following experimental method:
Z'-LYTEC® Kinase Assay Kit—Tyrosine 1 Peptide (PV3190, Invitrogen) was used to assay enzyme activity. 5 μl of recombinant human VEGFR2 enzyme (PV3660, Invitrogen) and VEGFR2 substrate polypeptide (in the reaction system, the final concentration of enzyme was 0.14 ng/μL, and the final concentration of substrate was 2 μM) formulated with reaction buffer (50 mM HEPES pH7.5, 10 mM MgCl2, 1 mM EGTA, 0.05% BRIJ-35), 2.5 μl of a 2-fold gradient dilution of the compounds dissolved in 5% DMSO, and 2.5 μL of ATP solution (the final concentration of ATP was 50 μM) were added successively to a 384-well plate (4513, Corning). After reaction at 25° C. for 2 hours, 5 μL of detection reagent was added to each well. After the plate was placed at 25° C. for 1 hour, the fluorescence signal values at emission wavelengths of 445 nm and 520 nm were measured with a NOVOstar (BMG) multi-function microplate reader. The IC50 values of the compounds for enzyme inhibition were calculated using Graphpad prism software based on each concentration of the compound and the corresponding signal value thereof.

For the next data set, the system named is NIH3T3 cell. The data set is described as follows: Inhibition of NIH3T3 cell proliferation (CellTiter-Glo). The class given is cell-based. Particulars: NIH3T3, 72 hours, 0.5% FBS; for IC50: Mus musculus. The method, then:
The inhibition effect of the compounds of the present invention on NIH3T3 cell proliferation was determined by the following in vitro test.
The inhibition effect of the compounds of the present invention on NIH3T3 cell proliferation was determined by the following experimental method:
On a 96-well white plate with transparent bottom (3903, Corning), 100 μL of NIH3T3 cell (GNM6, Cell Bank of Typical Culture Collection Committee of Chinese Academy of Sciences) was seeded in a DMEM medium containing 10% FBS (SH1-30243.01, GE) in each well. The seeding density is 2000 cells/well. The cells were incubated overnight at 37° C., in 5% CO2. After overnight incubation, each well was replaced with 90 μL of DMEM medium containing 0.5%0 FBS. 10 μl of a 3-fold gradient dilution of the compounds with DMEM medium containing 0.5% FBS was then added, and the plate was incubated for 72 hours in a cell incubator at 37° C., in 5% CO2. Finally, 50 μL of CellTiter-Glo (G7573, Promega) was added to each well. After incubation for 10 minutes at room temperature, the chemiluminescence signal values were measured with a Victor 3 microplate reader (PerkinElmer). The IC50 values of the compounds were calculated using Graphpad Prism software based on each concentration of the compound and the corresponding signal value thereof.

Data set [1] concerns Smad signaling pathway of TGFβRI. The data set is described as follows: Inhibition of Smad signaling pathway of TGFβRI (3TP-lux luciferase reporter in HepG2 cells). The class given is cell-based. Particulars: HepG2, 3TP-lux plasmid, 18 hours; for IC50: Homo sapiens. The method, then: The inhibition effect of the compounds of the present invention on Smad signaling pathway of TGFβRI was determined by the following in vitro test.
The inhibition effect of the compounds of the present invention on Smad signaling pathway of TGFβRI was determined by the following experimental method:
On a 96-well plate, 100 μL of HepG2 cell (TCHu 72, Cell Bank of Typical Culture Collection Committee of Chinese Academy of Sciences) was seeded on an EMEM medium containing 10% FBS (42360-099, Gibco) in each well. The seeding density is 2.5×10^4 cells/well. The cells were incubated overnight at 37° C., in 5% CO2. Each well was replaced with fresh EMEM medium containing 10% FBS. 0.1 μg of 3TP-lux plasmid (11767, Biovector Science Lab, Inc.) was transfected in each well. The cells were further incubated for 24 hours at 37° C., in 5% CO2. Each well was replaced with 90 μL of EMEM medium containing 0.5% FBS, then the cells were starved for 6 hours. The compounds were formulated as a 20 mM stock solution, which was diluted in gradient to a 400× concentration with 100% DMSO, and further 40-fold diluted with EMEM containing 0.5% FBS. The cell culture plate was taken out, then 10 μl of diluted compound or control (0.25% DMSO) was added to each well respectively. The plate was shaken gently, then incubated for 18 hours in an incubator at 37° C., in 5% CO2. Finally, 100 μl of detection reagent ONE-Glo™ Luciferase Assay (E6110, Promega) was added to each well, and the plate was placed in dark at room temperature for 10 minutes. The chemiluminescence signal values were measured with a Victor 3.0 (PerkinElmer). The IC50 values of the compounds were calculated using Graphpad Prism software based on each concentration of the compound and the corresponding signal value thereof.

Data set [2] can be described thus: Pharmacokinetics assay in rats after intragastrical administration. Particulars: both sexes, Sprague-Dawley, rat, plasma, po, SD rats; for Vd/F / AUC / CL/F / half-life / MRT: 2.0 mg/kg; for Vd/F: read-out: Apparent distribution volume Vz/F; for AUC: read-out: Area under curve AUC; for CL/F: read-out: Clearance CLz/F; for half-life: read-out: Half-life T1/2 (converted); for MRT: read-out: Residence time MRT. The class given is in vivo. The method, then: Rats were used as test animals. The drug concentration in plasma at different time points was determined by LC/MS/MS method after intragastrical administration of the compounds of Examples 1 and 2 to rats. The pharmacokinetic behavior of the compounds of the present invention was studied and evaluated in rats.
Eight healthy adult Sprague-Dawley (SD) rats (half male and half female) were purchased from SINO-BRITISH SIPPR/BK LAB. ANIMAL LTD., CO, with Certificate No.: SCXK (Shanghai) 2008-0016, and equally divided into 2 groups (4 rats per group).
A certain amount of the test drug was weighed, and added with 5% by volume of DMSO, 5% by volume of Tween 80, and 90% by volume of physiological saline to prepare a 0.2 mg/mL colorless, clear and transparent solution.
After an overnight fast, SD rats were administered intragastrically the test drugs at an administration dosage of 2.0 mg/kg and an administration volume of 10.0 mL/kg.
The rats were intragastrically administered the compounds of Examples 1 and 2. 0.2 mL of blood was taken from the orbital sinus before administration and at 0.5, 1.0, 2.0, 4.0, 6.0, 8.0, 11.0 and 24.0 hours after administration. The samples were stored in heparinized tubes, and centrifuged for 10 minutes at 4° C. at 3,500 rpm to separate the blood plasma. The plasma samples were stored at −20° C. The rats were fed 2 hours after administration.
The content of the test compounds in the plasma of rats after intragastrical administration of the test drugs at different concentrations was determined: 25 μL of rat plasma at each time after administration was taken, added with 30 μL (100 ng/mL) of the internal standard solution of camptothecin and 225 μL of acetonitrile, vortex-mixed for 5 minutes, and centrifuged for 10 minutes (3600 rpm). 5.0 μL of the supernatant was taken from the plasma samples for LC/MS/MS analysis.

recombinant human VEGFR2, sequence (P35968 20-1356): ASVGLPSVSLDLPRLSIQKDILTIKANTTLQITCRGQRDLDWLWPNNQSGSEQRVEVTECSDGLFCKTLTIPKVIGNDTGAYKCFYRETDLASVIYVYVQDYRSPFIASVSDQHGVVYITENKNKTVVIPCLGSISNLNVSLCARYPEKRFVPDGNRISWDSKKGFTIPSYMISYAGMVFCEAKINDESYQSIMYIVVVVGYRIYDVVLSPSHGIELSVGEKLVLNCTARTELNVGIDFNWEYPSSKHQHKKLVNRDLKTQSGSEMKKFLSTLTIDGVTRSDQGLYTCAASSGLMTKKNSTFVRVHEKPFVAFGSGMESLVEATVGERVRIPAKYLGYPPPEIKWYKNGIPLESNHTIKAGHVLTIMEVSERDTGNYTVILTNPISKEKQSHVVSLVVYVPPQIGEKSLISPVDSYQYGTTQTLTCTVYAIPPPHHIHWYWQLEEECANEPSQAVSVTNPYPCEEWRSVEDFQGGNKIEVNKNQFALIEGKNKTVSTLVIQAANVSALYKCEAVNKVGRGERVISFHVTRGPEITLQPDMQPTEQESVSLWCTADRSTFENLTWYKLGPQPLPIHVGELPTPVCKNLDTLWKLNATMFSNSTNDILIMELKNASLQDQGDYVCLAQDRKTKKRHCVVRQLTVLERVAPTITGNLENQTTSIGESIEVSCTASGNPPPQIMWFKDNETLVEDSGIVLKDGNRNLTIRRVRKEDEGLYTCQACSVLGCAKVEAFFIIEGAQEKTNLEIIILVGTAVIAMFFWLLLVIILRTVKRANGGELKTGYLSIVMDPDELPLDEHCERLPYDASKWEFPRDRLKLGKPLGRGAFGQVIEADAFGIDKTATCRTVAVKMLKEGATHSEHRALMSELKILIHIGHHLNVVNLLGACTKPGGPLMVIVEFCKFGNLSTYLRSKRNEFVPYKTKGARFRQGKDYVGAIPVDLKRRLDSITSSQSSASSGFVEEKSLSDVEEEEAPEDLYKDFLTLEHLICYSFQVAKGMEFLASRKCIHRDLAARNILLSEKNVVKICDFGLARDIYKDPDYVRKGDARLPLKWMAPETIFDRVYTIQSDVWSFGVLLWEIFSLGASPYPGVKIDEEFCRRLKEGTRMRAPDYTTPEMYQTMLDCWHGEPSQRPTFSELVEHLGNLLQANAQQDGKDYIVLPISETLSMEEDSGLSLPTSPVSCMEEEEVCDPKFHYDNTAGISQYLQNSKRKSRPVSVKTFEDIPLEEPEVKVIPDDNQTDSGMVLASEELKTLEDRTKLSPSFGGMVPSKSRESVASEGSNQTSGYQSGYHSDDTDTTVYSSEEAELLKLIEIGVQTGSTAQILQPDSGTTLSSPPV

Turning to `Cc1cccc(-c2nn(C3CCC3)cc2-c2ccnc(-c3ccc(S(C)(=O)=O)cc3)c2)n1` [Example 1, 4-(1-Cyclobutyl-3-(6-methylpyridin-2-yl)-1H-pyrazol-4-yl)-2-(4-(methylsulfonyl)phenyl)pyridine], on recombinant human VEGFR2, the IC50 came to 2500 nM. Moreover, in the data set on NIH3T3 cell, the IC50 stood at 88 nM and the “Maximum inhibition rate (%)” value was found to be 105%. In addition, in data set [1], the “Maximum inhibition rate (%)” value was 101% and half-maximal inhibition (IC50) was put at 77 nM. This molecule also registered a peak concentration (Cmax) in data set [2] (2 mg/kg, heading: Plasma concentration Cmax) of 1830 ± 941 ng/mL. Besides, in data set [2], the Vd/F was determined as 1.2 ± 0.437 L/kg, the AUC turned out to be 3270 ± 1470 ng·h/mL, the CL/F came out at 11.9 ± 5.2 mL/min/kg and the half-life was 1.23 ± 0.33 h. In addition, the MRT in data set [2] turned out to be 1.72 ± 0.21 h.

`Cc1cccc(-c2nn(C3CC3)cc2-c2ccnc(-c3ccc(S(C)(=O)=O)cc3)c2)n1` [Example 2, 4-(1-Cyclopropyl-3-(6-methylpyridin-2-yl)-1H-pyrazol-4-yl)-2-(4-(methylsulfonyl)phenyl)pyridine]: at recombinant human VEGFR2, the half-maximal inhibitory concentration (IC50) was 4200 nM. In addition, in the data set with NIH3T3 cell, it took 194 nM to reach half-maximal inhibition (IC50) and the “Maximum inhibition rate (%)” value came to 107%. Further, in data set [1], the “Maximum inhibition rate (%)” value was determined as 100% and the IC50 was determined as 174 nM. Besides, in data set [2], the Vd/F was 0.872 ± 0.536 L/kg, the area under the curve (AUC) came to 8060 ± 5290 ng·h/mL, the CL/F is 5.33 ± 2.65 mL/min/kg and the half-life is 1.99 ± 0.95 h. Further, the MRT in data set [2] amounted to 3.06 ± 0.87 h.
